The source of these data is publication PMC9822014, “Antibacterial Thiopeptide GE2270-Congeners from Nonomuraea jiangxiensis” (Molecules, 2022).

Structures are written as SMILES. Converted amounts (≈) assume the structure as drawn. “Also recorded” adds a separate entry of the source. Read-outs that look alike come from different tables or passages of the source.

Experiment [1] relates to Staphylococcus aureus Rosenbach (ATCC 25923). Nature of the experiment: Antibacterial microbroth dilution MIC/MBC against S. aureus. The settings on record: S. aureus Rosenbach ATCC 25923; for Relative antibacterial activity compared with another compound: 1 versus 2, 9 versus 8; for MIC / MIC90 / MBC90 (minimal bactericidal concentration) / MBC: Staphylococcus aureus; for MIC: ATCC25923, 24 h; for MIC90 / MBC90 (minimal bactericidal concentration) / MBC: ATCC25923; for MBC90 (minimal bactericidal concentration): read-out: MBC (IC90) / minimal bactericidal concentration (MBC90); for MBC: treated culture transferred to new media, read-out: MBC90 [(μM) mean ± SD]. Type of experiment: cell-based. On the procedure: The minimum inhibition concentration (MIC) and the minimum bactericidal/fungicidal concentration (MBC/MFC) were carried out using the microbroth dilution method according to the Clinical Laboratory Standards Institute (CLSI) guidelines, with some modifications. […] The tested compounds were then incubated together with bacterial cells at 37 °C for 24 h and with fungal spores at 25 °C for 72 h, respectively. The OD600 measurements were subsequentially carried out to evaluate the inhibitory effect of the compounds. To further determine the bactericidal and fungicidal effects of the compounds, 5 µL of the treated culture was transferred onto new media microplates. The plates were incubated under the same condition, followed by the OD600 measurement. […] The cells were then treated with the compounds for 72 h at 37 °C in the presence of 5% CO2. Any Cytotoxic effect was detected with PrestoBlue™ cell viability reagent (ThermoFisher Scientific, Waltham, MA, USA). The cells were read with a fluorescence reading at an excitation of 560 nm and an emission 590 nm. Standard inhibitors, gentamicin (Gibco, Waltham, MA, USA), amphotericin (Sigma-Aldrich, St. Louis, MO, USA) and puromycin (Sigma-Aldrich, St. Louis, MO, USA) were used as the assay controls for the antibacterial, antifungal and cytotoxicity assay. […] GraphPad Prism 8 software (GraphPad, San Diego, CA, USA) was used for the analysis of the bioactivity to determine the respective IC90 and IC50 values.
(In general: Broth dilution looks for growth in wells or tubes with falling amounts of substance.)

In experiment [2] the test system is Clostridium difficile infections. On the set-up: method as in PMID 25534727, PMID 22315981. Particulars: phase 2 clinical trial, humans; cited from earlier work.
Where [3] appears, read: Figure 5, read-out: MIC (IC90) / minimal inhibitory concentration (MIC90).
The mark [4] stands for this setting: 37 °C, 24 h, OD600, mean ± SD, triplicates, read-out: MIC90 [(μM) mean ± SD].

For `CNC(=O)CC1NC(=O)c2csc(n2)-c2ccc(-c3nc(C4=NC(C(=O)N5CCCC5C(=O)O)CO4)cs3)nc2-c2csc(n2)-c2csc(n2)C(C(O)c2ccccc2)NC(=O)CNC(=O)c2nc(sc2COC)C(C(C)C)NC(=O)c2nc1sc2C` (centres unmarked) [Compound 1, GE2270F1], in experiment [1], the “Antibacterial activity against S. aureus (in words)” value (shortened to “Antibacterial activity … (in words)”) is “displayed activities” and the “Relative antibacterial activity compared with another compound” value is “three-fold more active”. Also, in experiment [1] (setting [3]), the MIC was 2.63 µM (≈ 3.4 µg/mL) and the MIC90 was found to be 2.63 µM (≈ 3.4 µg/mL). Besides, the MIC90 in experiment [1] (setting [4]) came out at 2.63 ± 0.12 µM (≈ 3.4 µg/mL). The MBC90 (minimal bactericidal concentration) in experiment [1] (Figure 5) came to 18.5 µM (≈ 23.9 µg/mL). Further, the MBC in experiment [1] (OD600, mean ± SD, triplicates) came out at 18.5 ± 1.34 µM (≈ 23.9 µg/mL).
Take `CNC(=O)CC1NC(=O)c2csc(n2)-c2ccc(-c3nc(C4=NC(C(=O)N5CCCC5C(=O)O)CO4)cs3)nc2-c2csc(n2)-c2csc(n2)C(C(O)c2ccccc2)NC(=O)CNC(=O)c2csc(n2)C(C(C)C)NC(=O)c2nc1sc2C` (centres unmarked) [Compound 2, GE2270F2]: the “Antibacterial activity … (in words)” value in experiment [1] is on record as “displayed activities”. The values for the MIC90 in experiment [1] (setting [4]) and in experiment [1] (setting [3]) were 6.94 ± 0.83 µM (≈ 8.66 µg/mL) and 6.94 µM (≈ 8.66 µg/mL), respectively. Further, in experiment [1] (Figure 5), the MBC90 (minimal bactericidal concentration) is 67.9 µM (≈ 84.7 µg/mL). Further, the MBC in experiment [1] (OD600, mean ± SD, triplicates) is 67.9 ± 1.55 µM (≈ 84.7 µg/mL).
For the compound `CNC(=O)CC1NC(=O)c2csc(n2)-c2ccc(-c3nc(C4=NC(C(=O)N5CCCC5C(=O)O)CO4)cs3)nc2-c2csc(n2)-c2csc(n2)C(C(O)c2ccccc2)NC(=O)CNC(=O)c2csc(n2)C(C(C)C)NC(=O)c2csc1n2` (centres unmarked) [Compound 3, GE2270F3], in experiment [1], the “Antibacterial activity … (in words)” value is “inactive; also recorded: no bioactivity”. In addition, in experiment [1] (setting [3]), the MIC fell in the range of 2 to 11 µM (≈ 2.47 to 13.6 µg/mL) and the MIC90 was more than 70 µM. Further, the MIC90 in experiment [1] (setting [4]) is more than 70 µM. In addition, in experiment [1] (Figure 5), the MBC90 (minimal bactericidal concentration) is more than 70 µM. Moreover, the MBC in experiment [1] (OD600, mean ± SD, triplicates) was more than 70 µM.
For `CNC(=O)CC1NC(=O)c2csc(n2)-c2ccc(-c3nc(C4=NC(C(=O)N5CCCC5C(=O)O)CO4)cs3)nc2-c2csc(n2)-c2csc(n2)C(C(O)c2ccccc2)NC(=O)CNC(=O)c2nc(sc2COC)C(C(C)C)NC(=O)c2csc1n2` (centres unmarked) [Compound 4, GE2270F4], the “Antibacterial activity … (in words)” value in experiment [1] is “inactive; also recorded: no bioactivity”. Also, in experiment [1] (setting [3]), the MIC was 2 to 11 µM (≈ 2.56 to 14.1 µg/mL) and the MIC90 is more than 70 µM. In addition, the MIC90 in experiment [1] (setting [4]) was more than 70 µM. In addition, the MBC90 (minimal bactericidal concentration) in experiment [1] (Figure 5) is more than 70 µM. The MBC in experiment [1] (OD600, mean ± SD, triplicates) was more than 70 µM.
As for `CNC(=O)C[C@@H]1NC(=O)c2csc(n2)-c2ccc(-c3nc(C(=O)N[C@@H](CO)C(=O)N4CCC[C@H]4C(N)=O)cs3)nc2-c2csc(n2)-c2csc(n2)[C@H]([C@@H](O)c2ccccc2)NC(=O)CNC(=O)c2csc(n2)[C@H](C(C)C)NC(=O)c2nc1sc2C` [Compound 5], the “Antibacterial activity … (in words)” value in experiment [1] was “inactive”. For the same compound, in experiment [1] (setting [3]), the MIC was in the range of 2 to 11 µM (≈ 2.53 to 13.9 µg/mL) and the MIC90 is more than 70 µM. Besides, in experiment [1] (setting [4]), the MIC90 was more than 70 µM. Also, the MBC90 (minimal bactericidal concentration) in experiment [1] (Figure 5) is more than 70 µM. Further, the MBC in experiment [1] (OD600, mean ± SD, triplicates) is more than 70 µM.
In the case of `CNC(=O)C[C@@H]1NC(=O)c2csc(n2)-c2ccc(-c3nc(C(=O)N[C@@H](CO)C(=O)N4CCC[C@H]4C(N)=O)cs3)nc2-c2csc(n2)-c2csc(n2)[C@H]([C@@H](O)c2ccccc2)NC(=O)CNC(=O)c2nc(sc2COC)[C@H](C(C)C)NC(=O)c2nc1sc2C` [Compound 6], in experiment [1], the “Antibacterial activity … (in words)” value is “displayed activities; also recorded: demonstrated antibacterial activity”. Besides, in experiment [1] (setting [3]), the MIC lay within 2 to 11 µM (≈ 2.62 to 14.4 µg/mL). For the same compound, the MIC90 was 7.07 ± 0.55 µM (≈ 9.25 µg/mL) in experiment [1] (setting [4]) and 7.07 µM (≈ 9.25 µg/mL) in experiment [1] (setting [3]).
In the case of `CNC(=O)C[C@@H]1NC(=O)c2csc(n2)-c2ccc(-c3nc(C(=O)OC)cs3)nc2-c2csc(n2)-c2csc(n2)[C@H]([C@@H](O)c2ccccc2)NC(=O)CNC(=O)c2csc(n2)[C@H](C(C)C)NC(=O)c2nc1sc2C` [Compound 7], the “Antibacterial activity … (in words)” value in experiment [1] is “displayed activities”. Further, the figures for the MIC90 in experiment [1] (setting [4]) and in experiment [1] (setting [3]) were 4.71 ± 0.37 µM (≈ 5.16 µg/mL) and 4.71 µM (≈ 5.16 µg/mL), respectively. Moreover, the MBC90 (minimal bactericidal concentration) in experiment [1] (Figure 5) came out at 12.4 µM (≈ 13.6 µg/mL). The MBC in experiment [1] (OD600, mean ± SD, triplicates) amounted to 12.4 ± 1.06 µM (≈ 13.6 µg/mL).
With `CNC(=O)C[C@@H]1NC(=O)c2csc(n2)-c2ccc(-c3nc(C(=O)OC)cs3)nc2-c2csc(n2)-c2csc(n2)[C@H]([C@@H](O)c2ccccc2)NC(=O)CNC(=O)c2nc(sc2COC)[C@H](C(C)C)NC(=O)c2nc1sc2C` [Compound 8], the “Antibacterial activity … (in words)” value in experiment [1] was “displayed activities”. Besides, in experiment [1] (setting [3]), the MIC turned out to be 3.17 µM (≈ 3.61 µg/mL) and the MIC90 turned out to be 3.17 µM (≈ 3.61 µg/mL). Moreover, in experiment [1] (setting [4]), the MIC90 is 3.17 ± 0.28 µM (≈ 3.61 µg/mL). The MBC90 (minimal bactericidal concentration) in experiment [1] (Figure 5) amounted to 16.2 µM (≈ 18.5 µg/mL). Further, in experiment [1] (OD600, mean ± SD, triplicates), the MBC came to 16.2 ± 1.48 µM (≈ 18.5 µg/mL).
For `CNC(=O)C[C@@H]1NC(=O)c2csc(n2)-c2ccc(-c3nc(C(=O)O)cs3)nc2-c2csc(n2)-c2csc(n2)[C@H]([C@@H](O)c2ccccc2)NC(=O)CNC(=O)c2nc(sc2COC)[C@H](C(C)C)NC(=O)c2nc1sc2C` [Compound 9], in experiment [1], the “Antibacterial activity … (in words)” value is reported as “displayed activities”. Besides, the “Relative antibacterial activity compared with another compound” value in experiment [1] is on record as “at least a three-fold reduction”. Besides, the MIC90 stood at 10.3 ± 0.75 µM (≈ 11.6 µg/mL) in experiment [1] (setting [4]) and 10.3 µM (≈ 11.6 µg/mL) in experiment [1] (setting [3]). For the same compound, the MBC90 (minimal bactericidal concentration) in experiment [1] (Figure 5) was 52 µM (≈ 58.5 µg/mL). Besides, in experiment [1] (OD600, mean ± SD, triplicates), the MBC was found to be 52 ± 1.41 µM (≈ 58.5 µg/mL).
In the case of `CNC(C)C1CCC(N)C(OC2C(N)CC(N)C(OC3OCC(C)(O)C(NC)C3O)C2O)O1` (centres unmarked) [Gentamicin, gentamicin, reference compound], the results for the MIC90 in experiment [1] (setting [4]) and in experiment [1] (setting [3]) were 0.04 ± 0.01 µM (≈ 0.0191 µg/mL) and 0.04 µM (≈ 0.0191 µg/mL), respectively. Further, the MBC90 (minimal bactericidal concentration) in experiment [1] (Figure 5) came out at 0.1 µM (≈ 0.0478 µg/mL). Further, the MBC in experiment [1] (OD600, mean ± SD, triplicates) was 0.1 ± 0.01 µM (≈ 0.0478 µg/mL).
Take `CNC(=O)C[C@@H]1NC(=O)c2csc(n2)-c2ccc(-c3nc(N(CCCCC(=O)O)C(=O)O[C@H]4CC[C@H](C(=O)O)CC4)cs3)nc2-c2csc(n2)-c2csc(n2)[C@H]([C@@H](O)c2ccccc2)NC(=O)CNC(=O)c2nc(sc2COC)[C@H](C(C)C)NC(=O)c2nc1sc2C` [LFF571]: in experiment [2], the “Recurrence rates versus vancomycin” value was “higher recurrence rates than conventional antibiotics treatment with vancomycin”.
